From patent US20240344136A1, “RESPONSE TO EGFR BLOCKADE” (The Johns Hopkins University, priority 2015, published 2024)

Columns and labels:
[1] = tested on: CRC343 tumorgraft with MAP2K1 57K>N substitution; assay: Tumor growth in tumorgraft cohort CRC343; assay type: in vivo, NOD/SCID mice; details: CRC343, MAP2K1 57K>N; combination p<0.01, two-way ANOVA
[2] = tested on: CRC477 tumorgraft with FGFR1 amplification; assay: Tumor growth in tumorgraft cohort CRC477; assay type: in vivo, NOD/SCID mice; details: 6 mice per cohort, combination p<0.01, two-way ANOVA
[3] = tested on: CRC104 tumorgraft with EGFR 465G>E mutation; assay: Tumor growth in tumorgraft cohort CRC104; assay type: in vivo, NOD/SCID mice; details: CRC104, EGFR 465G>E; n=6 for each arm; p<0.01, two-way ANOVA
[4] = tested on: cetuximab-resistant tumors with 492S>R alterations in EGFR; details: EGFR 492S>R, previous reports (32); cited from earlier work

## Cn1cnc2c(F)c(Nc3ccc(Br)cc3Cl)c(C(=O)NOCCO)cc21 [AZD6244]
[1]
  Tumor growth: unproductive

## CCN1CCN(c2ccc(Nc3cc(N(C)C(=O)Nc4c(Cl)c(OC)cc(OC)c4Cl)ncn3)cc2)CC1 [BGJ398, 3-(2,6-dichloro-3,5-dimethoxy-phenyl)-1-{6-[4-(4-ethyl-piperazin-1-yl)-phenylamino]-pyrimidin-4-yl}-1-methyl-urea]
[2]
  Tumor growth: resistant

## panitumumab
[3]
  Tumor growth: poorly sensitive
[4]
  Sensitivity of tumors to therapy: sensitive
